Assay results reported in US11919856B2, “Compounds” (UCL BUSINESS LTD, priority 2018, dated 2024).

Experiments:
antithrombin = antithrombin (Homo sapiens, UniProt P01008); experiment: Serpin inhibitory activity, antithrombin; type: biochemical; details: incubation with 50 μM
Excerpt: (§1) In order to investigate suitability of Compound 1 for progression into in vivo studies and the potential for taking forward as a clinical candidate for testing in human, Compound 1 was profiled against a panel of in vitro assays for off-targets considered predictive of potential safety liabilities. […] The measured potency of these marginal activities were at least 10-fold below the cellular activity of Compound 1 at blocking Z α1-antitrypsin polymerisation (pEC50 6.3). Loss of inhibitory activity represents a means by which possible off-target engagement with other serpins can be evaluated. However in contrast to α1-antitrypsin upon incubation with 50 μM Compound 1 the inhibitory activity of the homologues antithrombin, neuroserpin and antichymotrypsin was not affected.

Z α1-antitrypsin = Z α1-antitrypsin (Homo sapiens, UniProt P01009, E366K/V237A); experiment: Secretion of Z α1-antitrypsin from iPSC-derived hepatocytes (ZZ genotype); type: cell-based; set-up: a random insertion of the human Z α1-antitrypsin gene; from tissue; host or cells: liver and plasma of Z α1-antitrypsin transgenic mice (human Z transgene)
Chain of Z α1-antitrypsin (P01009 25-418 V237A/E366K): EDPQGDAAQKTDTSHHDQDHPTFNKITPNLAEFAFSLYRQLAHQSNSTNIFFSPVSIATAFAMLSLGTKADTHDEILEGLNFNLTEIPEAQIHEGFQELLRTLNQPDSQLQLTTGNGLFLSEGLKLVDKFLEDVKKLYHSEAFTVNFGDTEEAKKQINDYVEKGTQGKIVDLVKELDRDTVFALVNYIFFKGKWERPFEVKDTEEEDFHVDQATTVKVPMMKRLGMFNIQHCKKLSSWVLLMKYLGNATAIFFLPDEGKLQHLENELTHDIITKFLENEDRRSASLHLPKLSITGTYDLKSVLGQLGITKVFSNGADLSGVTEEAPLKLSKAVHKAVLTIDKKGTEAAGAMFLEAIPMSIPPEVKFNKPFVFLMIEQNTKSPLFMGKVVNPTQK
Experimental: In order to confirm that the potency and efficacy of Compound 1 in CHO-TET-ON-Z-A1AT was a reasonable estimate of what could be expected in hepatocytes with endogenous levels of expression, the effect of Compound 1 on the secretion and polymerisation of Z α1-antitrypsin was measured in iPSC-derived hepatocytes with the ZZ α1-antitrypsin genotype (Yusa et al. Nature. 2011; 478:391-4).

[1] = Panel of in vitro assays for off-targets predictive of safety liabilities
Excerpt: as §1

M α1-antitrypsin = molecular target: T1, M α1-antitrypsin (Homo sapiens, UniProt P01009); experiment: Compound association experiments (intrinsic tryptophan fluorescence), M α1-antitrypsin; type: binding
T1 construct: Alpha1-antitrypsin was purified from the plasma of ZZ and MM α1-antitrypsin homozygotes; from tissue; host or cells: plasma of MM homozygotes
T1 sequence (P01009 25-418): as the sequence (P01009 25-418 V237A/E366K) above, with A213V, K342E counted along it
Experimental: The intrinsic tryptophan fluorescence of α1-antitrypsin is dominated by Trp194 in the breach region (Tew et al. J Mol Biol. 2001 Nov. 9; 313(5):1161-9) and can be used to monitor the progress of compound binding. Plasma M and Z α1-antitrypsin were diluted to 0.2 mg/ml in 100 μM PBS, and Compound 1 (or an equivalent volume of DMSO) added to a concentration of 10 μM. Fluorescence (λex=280 nm, λem=330 nm) was monitored for at least 2 hours, and the half-time of change was calculated.
Kinetic data in stopped flow experiments were fitted to exponential decay curves with offset and linear slope, to account for a constant drift in the background, resulting in observed pseudo-first-order rate constants k(obs): y=A0·e^−k(obs)t+slope·t+offset where t=time and Ao=amplitude at t=0. The second-order on-rate was then obtained as the slope when plotting k(obs) values versus compound concentration. Off-rates were calculated from the on-rates and the KD values determined from the binding assays. Cell Biology

antichymotrypsin = molecular target: T2, antichymotrypsin (Homo sapiens, UniProt P01011); experiment: Serpin inhibitory activity, antichymotrypsin; type: biochemical; details: incubation with 50 μM
T2 sequence (P01011 24-423): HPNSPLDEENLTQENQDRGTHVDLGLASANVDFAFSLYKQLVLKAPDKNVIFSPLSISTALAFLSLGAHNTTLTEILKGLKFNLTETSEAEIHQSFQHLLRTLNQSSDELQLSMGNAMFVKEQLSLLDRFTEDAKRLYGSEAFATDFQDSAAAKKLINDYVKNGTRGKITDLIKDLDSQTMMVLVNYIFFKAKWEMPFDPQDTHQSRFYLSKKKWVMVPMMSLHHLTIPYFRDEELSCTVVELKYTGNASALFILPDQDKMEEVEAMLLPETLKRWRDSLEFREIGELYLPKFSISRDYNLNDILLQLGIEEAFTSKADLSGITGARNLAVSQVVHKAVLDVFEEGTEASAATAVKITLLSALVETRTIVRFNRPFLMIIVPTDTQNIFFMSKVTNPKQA
Excerpt: as §1

ChromLogD = type: physicochemical
Solubility in FaSSIF = type: physicochemical
neuroserpin = molecular target: T3, neuroserpin (Homo sapiens, UniProt Q99574); experiment: Serpin inhibitory activity, neuroserpin; type: biochemical; details: incubation with 50 μM
T3 sequence (Q99574 17-410): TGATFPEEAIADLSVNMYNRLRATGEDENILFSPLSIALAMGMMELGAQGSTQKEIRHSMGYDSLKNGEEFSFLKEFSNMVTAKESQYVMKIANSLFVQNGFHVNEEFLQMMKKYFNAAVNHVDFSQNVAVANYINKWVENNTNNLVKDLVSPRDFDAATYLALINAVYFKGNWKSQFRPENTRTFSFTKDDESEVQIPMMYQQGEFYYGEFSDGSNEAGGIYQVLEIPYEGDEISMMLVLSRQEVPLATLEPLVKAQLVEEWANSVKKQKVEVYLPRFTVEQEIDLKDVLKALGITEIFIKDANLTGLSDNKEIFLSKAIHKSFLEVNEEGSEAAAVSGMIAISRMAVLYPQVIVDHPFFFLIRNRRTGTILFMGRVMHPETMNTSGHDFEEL
Excerpt: as §1

Chain of antithrombin (P01008 33-464): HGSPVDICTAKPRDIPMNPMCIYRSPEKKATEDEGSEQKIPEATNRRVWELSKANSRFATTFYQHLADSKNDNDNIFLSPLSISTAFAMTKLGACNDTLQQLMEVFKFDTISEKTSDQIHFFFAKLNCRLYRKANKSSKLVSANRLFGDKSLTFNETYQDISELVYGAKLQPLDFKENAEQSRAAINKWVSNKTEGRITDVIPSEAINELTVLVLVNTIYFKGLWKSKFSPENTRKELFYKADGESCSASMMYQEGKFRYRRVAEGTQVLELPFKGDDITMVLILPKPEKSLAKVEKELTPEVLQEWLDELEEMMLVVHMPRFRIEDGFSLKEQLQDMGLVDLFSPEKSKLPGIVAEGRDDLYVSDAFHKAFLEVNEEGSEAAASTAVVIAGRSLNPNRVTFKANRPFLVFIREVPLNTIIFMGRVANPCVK

SMILES: CCC[C@@H](NC(=O)c1cccc2c1CC(=O)N2)[C@@H](O)c1cccc(F)c1C [Compound 1, N-[(1S,2R)-1-(3-fluoro-2-methylphenyl)-1-hydroxypentan-2-yl]-2-oxo-2,3-dihydro-1H-indole-4-carboxamide]
- inhibitory activity of antithrombin (antithrombin): not affected
- increase of secreted levels of Z α1-antitrypsin (Z α1-antitrypsin): approximately 3 fold
- EC50 (Z α1-antitrypsin; read-out: pEC50, secretion of Z α1-antitrypsin (converted)): 316 nM
- activity against off-target panel [1]: inactive against the majority of these targets
- marginal activities in off-target panel [1]: low level of activity close to the lower limit of sensitivity in 16 assays
- potency of marginal off-target activities below cellular activity ([1]; relative to cellular activity at blocking Z α1-antitrypsin polymerisation): at least 10 fold
- koff (M α1-antitrypsin; calculated from on-rate and KD, read-out: first-order dissociation rate): 1.6e-05 s⁻¹
- kon (M α1-antitrypsin; read-out: second-order association rate): 210 M⁻¹ s⁻¹
- inhibitory activity of antichymotrypsin (antichymotrypsin): not affected
- ChromLogD (pH7.4) (ChromLogD): 3.8
- solubility of amorphous drug substance in FaSSIF (Solubility in FaSSIF): good solubility
- inhibitory activity of neuroserpin (neuroserpin): not affected
